Experimental data reported in patent publication US20240093034A1, “FLUORESCENT DYES” (EXOPHARM LIMITED, priority 2020, published 2024).

What was measured:
[1] = tested on: normal human dermal fibroblasts (NHDF); assay: Labelling of human cells with dyes (plate fluorescence); format: cell-based; conditions: 2 μM dye, 1 hr 37° C., washed with HBSS; higher = more incorporation
Procedure: Labelling of human cells with dyes 1-10 was performed according to the following procedure. Each well of a Costar 96 well flat bottom plate was seeded with 5,000 normal human dermal fibroblasts (NHDF; not older than P9) and allowed to attach overnight in full media: fibroblast growth media (Lonza)+2% v/v fetal calf serum. Each dye was diluted 1:50 from a stock of 1 mM with 10 mM L-histidine, 150 mM NaCl, pH 6.0, to a final concentration of 20 μM. The dye was subsequently added to full media at a further 1:10 dilution to a final concentration of 2 μM. The media on the cells was subsequently replaced with the freshly prepared full media containing the dye. For negative controls, an equivalent volume of the diluent solution was added to the cell solution. Cells were incubated for 1 hr at 37° C. and then washed with 1 xHBSS (Hank's balanced salt solution) to remove free dye. Plate was imaged using the CLARIOStar spectrophotometer (5x5 matrix mode, average of 25 data points, 3 wells for each dye). A higher fluorescence indicates a higher amount of incorporation into the cells.

[2] = tested on: MSC-EVs; assay: Dye labelling of MSC-EV preparations analysed by imaging flow cytometry (IFCM)
Procedure: MSC-EVs were prepared form human platelet lysate containing MSC-conditioned media by polyethylene glycol 6000 precipitation followed by ultracentrifugation, as described previously (Borger, V. et al, 2020, Scaled Isolation of Mesenchymal Stem/Stromal Cell-Derived Extracellular Vesicles. Curr Protoc Stem Cell Biol 55, e128; Kordelas et al., 2014, MSC-derived exosomes: a novel tool to treat therapy-refractory graft-versus-host disease. Leukemia 28, 970-973; Ludwig et al., 2018, Precipitation with polyethylene glycol followed by washing and pelleting by ultracentrifugation enriches extracellular vesicles from tissue culture supernatants in small and large scales. J Extracell Vesicles 7, 1528109). Conditioned media were harvested every 48 h. Obtained MSC-EV preparations were diluted in NaCl-HEPES buffer (Sigma-Aldrich, Taufkirchen, Germany) such that 1 mL of final samples contained the preparation yield of the conditioned media of approximately 4.0×10^7 cells.
The staining with CFSE (Thermo Fisher Scientific, Darmstadt, Germany) was based on the manufacturer's protocol. Slight modifications were required to reduce the signal from unbound CFSE. Briefly, the CFSE stock solution was diluted to a working solution of 10 μM CFSE. The solution was centrifuged three times for 10 min at 17,000 × g. Subsequently, 25 μL of MSC-EV preparations, corresponding to the amount of EVs derived from 1×10^6 MSCs, were incubated with the centrifuged CFSE solution for 20 min at 37° C. The sample was diluted 1:20 to a final volume of 1 mL prior to analysis.
The staining of MSC-EV preparations with Calcein AM followed the manufacturer's instructions. Briefly, 25 μL of MSC-EV preparations were incubated with 25 μL of a 20 μM solution of Calcein AM (Thermo Fisher Scientific) for 40 min at 37° C. The sample was diluted 1:20 to a final volume of 1 mL to reduce background noise, avoiding the requirement of a washing step.
The staining of MSC-EV preparations with BODIPY-TR-Ceramide followed the manufacturer's instructions. Briefly, 25 μL of the MSC-EV preparation, corresponding to EVs purified from […], were incubated with 25 μL of a 20 μM solution of BODIPY TR Ceramide (Thermo Fisher Scientific) for 20 min at 37° C. 450 μL of 0.9% NaCl with 10mM HEPES (0.9% NaCl, Melsungen, B. Braun; HEPES, Thermo Fisher Scientific) buffer was added and the EVs were washed by using a Centrifugal Concentrator (Vivaspin 500; Sartorius, Gottingen, Germany). The retentate was adjusted to 500 μL prior to analysis.
The staining of MSC-EV preparations with PKH67 followed the manufacturer's instructions for labeling EVs (Thermo Fisher Scientific). Briefly, using 200 μL of given MSC-EV preparations, corresponding to EVs purified from 8×10^6 cells, the solution was adjusted with Diluent C to a final volume of 1 mL. […]

[3] = tested on: NHDF; assay: Imaging human cells labelled with dye (microscopy); format: cell-based; conditions: 0.2 μM dye
Procedure: (§1) The cells were imaged to assess incorporation of the dyes according to the following procedure. Cell+dye 2 samples were prepared following the procedure in Example 4 with the following modifications: the cells were seeded with NHDF (not older than P9), human umbilical cord-derived mesenchymal stem cells (UC-MSCs) or bone marrow-derived MSCs (BM-MSCs); and the dye 2 was used in a final concentration of 0.2 μM. Before imaging, each well was washed with 1× HBSS (−) once. 100-200 μL of 1× HBSS (−) was added to each well prior to imaging to make sure the cells are not dried out. The cells were imaged on a Thermo Fisher Evos M5000 microscope equipped with the Texas Red filter. Routinely utilized conditions are (magnification, light, exposure, gain): 10× Texas Red, 22, 146, 105; 20× Texas Red, 12, 133, 64; 40× Texas Red, 36, 79, 40. Settings were held constant for all images taken on the same plate.

[4] = tested on: bone marrow-derived MSCs (BM-MSCs); assay: Imaging human cells labelled with dye (microscopy); format: cell-based; conditions: 0.2 μM dye
Procedure: as §1

[5] = tested on: human umbilical cord-derived mesenchymal stem cells (UC-MSCs); assay: Imaging human cells labelled with dye (microscopy); format: cell-based; conditions: 0.2 μM dye
Procedure: as §1

CCCCCCCCCCCCCCCCCCN(C)C(=O)c1ccccc1-c1c2ccc(=[N+](CC)CC)cc-2oc2cc(N(CC)CC)ccc12.[Cl-] [Dye 2, Rhodamine B N-methyloctadecylamide]
FLD [1]: 123449
labelling of sEVs in MSC-EV preparations (conclusion) ([2]; IFCM, with anti-CD9, anti-CD63, anti-CD81 counterstaining where done): successfully labels most of the sEVs
labelled objects in MSC-EV preparations (FIG. 8) ([2]; dye + MSC-EVs): solid populations of labelled objects were observed
labelling of cells (microscopy, FIG. 3(a)) [3]: capable of labelling
labelling of cells (microscopy, FIG. 3(c)) [4]: capable of labelling
labelling of cells (microscopy, FIG. 3(b)) [5]: capable of labelling
